Measured values taken from patent publication US11566007B2, “Ras inhibitors” (Revolution Medicines, Inc., priority 2019, dated 2023).
Like-named read-outs stand apart in the source and are kept apart here.

Tests used:
[1] = system: NCI-H358 cells (K-Ras G12C); experiment: Potency assay: pERK in NCI-H358 cells; type: cell-based, human; details: Homo sapiens
Summary of the method: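 4 h cpd, 37 °C; 10-pt 3-fold series, 10 mM DMSO top stock, duplicates. Readout pERK: AlphaLISA SureFire Ultra or In-Cell Western (IR-800CW secondary, DRAQ5 DNA stain). IC50, 4-PL fit vs log conc.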

K-Ras G12C = K-Ras G12C (Homo sapiens (Human), UniProt P01116+P62937, G12C); experiment: Ras-Raf (BRAF RBD) disruption / FRET / MOA assay, KRAS G12C; type: biochemical; details: KRAS G12C; Ras-Raf disruption/FRET/MOA assay; read-out: IC50* KRAS G12C FRET data
Summary of the method: (§1)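 Ras:RAF disruption was scored as a fall in TR-FRET ratio relative to DMSO. Compound ranged in 3-fold steps over 10 points from 30 μM final; incubation ran 3 h at 25° C, detection antibodies a further 1.5 h. Reported as IC50.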

K-Ras G13C = K-Ras G13C (Homo sapiens (Human), UniProt P01116+P62937, G13C); experiment: Ras-Raf (BRAF RBD) disruption / FRET / MOA assay, KRAS G13C; type: biochemical; details: KRAS G13C; Ras-Raf disruption/FRET/MOA assay; read-out: IC50* KRAS G13C FRET data
Summary of the method: as §1

KRAS Q61H = KRAS Q61H (Homo sapiens (Human), UniProt P01116+P62937, Q61H); experiment: Ras-Raf (BRAF RBD) disruption / FRET / MOA assay, KRAS Q61H; type: biochemical; details: Ras-Raf disruption/FRET/MOA assay; class symbols; read-out: KRAS Q61H FRET data IC50
Summary of the method: (§2)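 TR-FRET disruption of nucleotide-loaded Ras binding to BRAF RBD via compound-driven ternary complex with cyclophilin A. Compound as 10-point 3-fold series from 30 μM final, 3 h at 25° C, then anti-His Eu-W1024 (10 nM) and anti-GST allophycocyanin (50 nM) for 1.5 h. IC50 from decreased FRET ratio versus DMSO.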

NRAS Q61R = NRAS Q61R (Homo sapiens (Human), UniProt P01111+P62937, Q61R); experiment: Ras-Raf (BRAF RBD) disruption / FRET / MOA assay, NRAS Q61R; type: biochemical; details: NRAS Q61R; Ras-Raf disruption/FRET/MOA assay; read-out: IC50* NRAS Q61R FRET data
Summary of the method: as §2

NRAS WT = NRAS WT (Homo sapiens (Human), UniProt P01111+P62937); experiment: Ras-Raf (BRAF RBD) disruption / FRET / MOA assay, NRAS WT; type: biochemical; details: read-out: IC50* NRAS WT FRET data
Summary of the method: as §2

[2] = NCI-H358, H358 KRAS G12C, read-out: pERK EC50

Sequence of NRAS Q61R (P01111 whole entry Q61R): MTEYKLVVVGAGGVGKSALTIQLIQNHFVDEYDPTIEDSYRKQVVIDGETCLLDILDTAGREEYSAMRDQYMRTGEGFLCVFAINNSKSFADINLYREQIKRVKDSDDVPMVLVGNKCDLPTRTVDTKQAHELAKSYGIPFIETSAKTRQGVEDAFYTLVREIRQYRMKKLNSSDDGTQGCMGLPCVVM
Sequence of NRAS Q61R (P62937 whole entry): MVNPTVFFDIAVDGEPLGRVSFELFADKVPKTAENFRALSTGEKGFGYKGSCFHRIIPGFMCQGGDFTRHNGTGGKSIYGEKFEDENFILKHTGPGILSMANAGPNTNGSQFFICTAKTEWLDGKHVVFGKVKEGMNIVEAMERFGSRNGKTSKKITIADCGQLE
Sequence of NRAS WT (P01111 whole entry): as the sequence (P01111 whole entry Q61R) above, with R61Q counted along it
Sequence of NRAS WT (P62937 whole entry): as the sequence (P62937 whole entry) above
Sequence of K-Ras G12C (P01116-2 other isoform, or with tags, fused parts or gaps G12C): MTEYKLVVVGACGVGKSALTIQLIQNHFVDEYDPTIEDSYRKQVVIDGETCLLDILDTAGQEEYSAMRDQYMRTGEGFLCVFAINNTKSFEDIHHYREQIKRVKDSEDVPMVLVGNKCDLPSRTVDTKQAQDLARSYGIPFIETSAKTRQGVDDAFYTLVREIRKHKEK
Sequence of K-Ras G12C (P62937 whole entry): as the sequence (P62937 whole entry) above
Sequence of K-Ras G13C (P01116-2 other isoform, or with tags, fused parts or gaps G13C): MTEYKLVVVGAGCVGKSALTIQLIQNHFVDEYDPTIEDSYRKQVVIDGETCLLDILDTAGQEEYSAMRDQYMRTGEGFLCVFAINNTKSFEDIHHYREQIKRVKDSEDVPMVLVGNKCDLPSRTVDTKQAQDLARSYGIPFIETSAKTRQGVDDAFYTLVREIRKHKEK
Sequence of K-Ras G13C (P62937 whole entry): as the sequence (P62937 whole entry) above
Sequence of KRAS Q61H (P01116-2 other isoform, or with tags, fused parts or gaps Q61H): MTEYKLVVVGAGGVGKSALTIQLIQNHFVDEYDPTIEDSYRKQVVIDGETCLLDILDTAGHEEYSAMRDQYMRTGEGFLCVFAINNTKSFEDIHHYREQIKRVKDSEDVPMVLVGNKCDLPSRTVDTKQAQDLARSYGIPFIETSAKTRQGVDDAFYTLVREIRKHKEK
Sequence of KRAS Q61H (P62937 whole entry): as the sequence (P62937 whole entry) above

| Structure (SMILES) | EC50 [1, 2] | IC50 (K-Ras G12C) | IC50 (K-Ras G13C) | IC50 (KRAS Q61H) | IC50 (NRAS Q61R) | IC50 (NRAS WT) | EC50 ([1]; NCI-H358, read-out: pERK EC50) |
| --- | --- | --- | --- | --- | --- | --- | --- |
| C=CC(=O)N1CCOC2(CCN(C(=O)N(C)[C@H](C(=O)N[C@H]3Cc4cc(C(F)F)cc(n4)-c4ccc5c(c4)c(c(-c4cccnc4[C@H](C)OC)n5CC(F)(F)F)CC(C)(C)COC(=O)[C@@H]4CCCN(N4)C3=O)C(C)C)CC2)C1 (atropisomer, axis not shown) [Example A541] | < 5000 nM | 100 to 1000 nM | 10 to 100 nM | 100 to 1000 nM | 100 to 1000 nM | 100 to 1000 nM | – |
| C=CC(=O)N1CCC[C@]12CCN(C(=O)N(C)[C@H](C(=O)N[C@H]1Cc3nc(cs3)-c3ccc4c(c3)c(c(-c3cccnc3[C@H](C)OC)n4CC)CC(C)(C)COC(=O)[C@@H]3CCCN(N3)C1=O)C(C)C)C2 (atropisomer, axis not shown) [Example A548] | < 5000 nM | 100 to 1000 nM | 1000 to 10000 nM | 100 to 1000 nM | 100 to 1000 nM | 100 to 1000 nM | – |
| C=CC(=O)N(C)CCN1CCN(C(=O)N(C)[C@H](C(=O)N[C@H]2Cc3cccc(c3)-c3ccc4c(c3)c(c(-c3cccnc3[C@H](C)OC)n4CC)CC(C)(C)COC(=O)[C@@H]3CCCN(N3)C2=O)C(C)C)C[C@H]1C (atropisomer, axis not shown) [Example A553] | < 5000 nM | 100 to 1000 nM | 10 to 100 nM | 100 to 1000 nM | 1000 to 10000 nM | 1000 to 10000 nM | – |
| C=CC(=O)N1CCC2(CCN(C(=O)N(C)[C@H](C(=O)N[C@H]3Cc4cccc(c4)-c4ccc5c(c4)c(c(-c4cccnc4[C@H](C)OC)n5CC)CC(C)(C)COC(=O)[C@@H]4CCCN(N4)C3=O)C(C)C)CC2)C1 (atropisomer, axis not shown) [Example A554] | < 5000 nM | 100 to 1000 nM | 10 to 100 nM | 100 to 1000 nM | 100 to 1000 nM | 100 to 1000 nM | – |
| C=CC(=O)N1CC[C@]2(C1)OCN([C@H](C(=O)N[C@H]1Cc3cc(cc(C(F)F)c3)-c3ccc4c(c3)c(c(-c3cccnc3[C@H](C)OC)n4CC)CC(C)(C)COC(=O)[C@@H]3CCCN(N3)C1=O)C(C)C)C2=O (atropisomer, axis not shown) [Example A557] | < 5000 nM | 100 to 1000 nM | 100 to 1000 nM | 10 to 100 nM | 1000 to 10000 nM | 100 to 1000 nM | – |
| CCn1c(-c2cccnc2[C@H](C)OC)c2c3cc(ccc31)-c1cccc(c1)C[C@H](NC(=O)[C@H](C(C)C)N1CC[C@]3(CCN(C(=O)C#C[C@H]4COCCN4C4COC4)C3)C1=O)C(=O)N1CCC[C@H](N1)C(=O)OCC(C)(C)C2 (atropisomer, axis not shown) [Example A568] | < 5000 nM | 10 to 100 nM | 1000 to 10000 nM | 1000 to 10000 nM | > 10000 nM | > 10000 nM | – |
| CCn1c(-c2cccnc2[C@H](C)OC)c2c3cc(ccc31)-c1cccc(c1)C[C@H](NC(=O)[C@H](C(C)C)N1CC[C@]3(CCN(C(=O)C#C[C@@H]4COCCN4C)C3)C1=O)C(=O)N1CCC[C@H](N1)C(=O)OCC(C)(C)C2 (atropisomer, axis not shown) [Example A569] | – | 10 to 100 nM | 1000 to 10000 nM | 1000 to 10000 nM | > 10000 nM | > 10000 nM | < 5000 nM |
| C=CC(=O)N(C)CCN1CCN(C(=O)N(C)[C@H](C(=O)N[C@H]2Cc3cccc(c3)-c3ccc4c(c3)c(c(-c3cccnc3[C@H](C)OC)n4CC)CC(C)(C)COC(=O)[C@@H]3CCCN(N3)C2=O)C(C)C)C[C@@H]1C (atropisomer, axis not shown) [Example A570] | < 5000 nM | 100 to 1000 nM | 10 to 100 nM | 100 to 1000 nM | 100 to 1000 nM | 100 to 1000 nM | – |
| C=CC(=O)N1CCO[C@H]2CN(C(=O)N(C)[C@H](C(=O)N[C@H]3Cc4nc(n(C)n4)-c4ccc5c(c4)c(c(-c4cccnc4[C@H](C)OC)n5CC(F)(F)F)CC(C)(C)COC(=O)[C@@H]4CCCN(N4)C3=O)C(C)C)C[C@H]21 (atropisomer, axis not shown) [Example A575] | < 5000 nM | 10 to 100 nM | 10 to 100 nM | 100 to 1000 nM | 100 to 1000 nM | 100 to 1000 nM | – |
